Series [1] in a line: Molar enthalpy of transition or fusion. The conditions noted are these: Crystal; DSC.
For series [2] the following is noted: Crystal; DTA.

The structures appear in SMILES notation. ± gives the expanded uncertainty stated by the source.

On to `COc1cc(C(=O)O)cc(OC)c1O` [4-hydroxy-3,5-dimethoxybenzoic acid], for which, in series [1], the “Molar enthalpy of transition or fusion” value is 33.4 ± 1.5 kJ/mol. In addition, the Normal melting temperature in series [2] was found to be 212.7 ± 1.1 °C.

Values taken from the NIST ThermoML archive (doi:10.1021/acs.jced.7b00333).
